Results reported in patent US20020035111A1, “Method of inhibiting neoplastic cells with tetracyclic pyrido[3,4-B] indole derivatives” (priority 1998, published 2002).

melting point: 150 to 151 °C
Structure (SMILES): C[C@@H]1NC(=O)[C@H]2Cc3c([nH]c4ccccc34)[C@@H](c3ccc4occc4c3)N2C1=O [Example 123, (3S, 6R, 12aR)-2,3,6,7, 12, 12a-Hexahydro-6-(5-Benzofuranyl)-3-Methyl-Pyrazino[2′,1′:6,1]Pyrido [3,4-b]Indole-1,4-Dione]
